Data set [1] can be described thus: Effective permeability by PAMPA-BBB penetration assay. Type of data set: ADME. The settings on record: read-out: Peff. (PAMPA measures passive passage across an artificial lipid membrane.)
A short description of data set [2]: Intrinsic clearance in human liver microsomes at 1 uM in presence of NADPH by LC-MS/MS analysis. In kind it is ADME, Microsome. Conditions: read-out: CLH. (In general: Liver microsomes are a subcellular fraction often used to study metabolism.)
A short description of data set [3]: Half life in human liver microsomes at 1 uM in presence of NADPH by LC-MS/MS analysis. Type of data set: ADME, Microsome.
For data set [4], the target named is Cholinesterase (Equus caballus) (UniProt P81908). Briefly: Inhibition of equine serum BChE at 10 uM pre-incubated for 5 mins before butyrylthiocholine iodide substrate addition and measured after 2 mins.
Sequence of Cholinesterase (Equus caballus) (P81908 whole entry): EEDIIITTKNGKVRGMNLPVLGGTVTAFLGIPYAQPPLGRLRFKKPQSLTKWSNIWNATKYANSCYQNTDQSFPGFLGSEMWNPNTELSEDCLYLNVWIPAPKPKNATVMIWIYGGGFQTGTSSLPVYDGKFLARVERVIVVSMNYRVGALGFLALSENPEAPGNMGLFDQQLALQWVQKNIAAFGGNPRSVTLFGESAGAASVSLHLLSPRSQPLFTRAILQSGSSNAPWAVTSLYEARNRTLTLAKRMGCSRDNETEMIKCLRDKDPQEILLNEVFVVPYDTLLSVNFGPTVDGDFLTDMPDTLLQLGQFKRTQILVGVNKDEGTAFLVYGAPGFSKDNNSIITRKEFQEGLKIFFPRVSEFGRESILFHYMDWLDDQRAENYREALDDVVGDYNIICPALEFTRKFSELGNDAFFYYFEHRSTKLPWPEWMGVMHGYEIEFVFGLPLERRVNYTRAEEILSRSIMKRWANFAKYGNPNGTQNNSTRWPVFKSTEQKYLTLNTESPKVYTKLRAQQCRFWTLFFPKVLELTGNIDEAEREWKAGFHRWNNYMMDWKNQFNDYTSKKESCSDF
In data set [5] the target is Acetylcholinesterase (Electrophorus electricus) (UniProt O42275). Briefly: Inhibition of Electrophorus electricus AChE at 10 uM pre-incubated for 5 mins before acetylthiocholine iodide substrate addition and measured after 2 mins.
Sequence of Acetylcholinesterase (Electrophorus electricus) (O42275 24-633 limits assumed): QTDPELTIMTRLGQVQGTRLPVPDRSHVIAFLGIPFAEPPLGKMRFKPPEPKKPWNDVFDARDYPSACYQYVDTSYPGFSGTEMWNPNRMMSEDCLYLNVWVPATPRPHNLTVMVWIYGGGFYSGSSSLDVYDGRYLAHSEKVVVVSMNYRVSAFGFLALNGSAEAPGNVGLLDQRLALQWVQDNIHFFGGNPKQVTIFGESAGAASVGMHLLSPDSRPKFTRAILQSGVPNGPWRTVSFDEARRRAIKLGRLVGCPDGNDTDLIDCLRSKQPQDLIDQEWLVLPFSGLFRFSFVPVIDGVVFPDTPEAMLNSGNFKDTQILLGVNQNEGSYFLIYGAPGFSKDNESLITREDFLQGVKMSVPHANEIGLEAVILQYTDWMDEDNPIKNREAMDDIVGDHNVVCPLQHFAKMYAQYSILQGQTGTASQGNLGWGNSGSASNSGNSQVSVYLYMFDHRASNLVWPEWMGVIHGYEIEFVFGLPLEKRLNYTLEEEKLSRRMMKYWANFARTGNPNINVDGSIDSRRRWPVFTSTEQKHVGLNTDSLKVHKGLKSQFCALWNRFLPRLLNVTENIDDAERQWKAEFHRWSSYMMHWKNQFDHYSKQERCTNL
Data set [6] concerns the target Acetylcholinesterase (Electrophorus electricus, UniProt O42275). Briefly: Inhibition of Electrophorus electricus AChE pre-incubated for 5 mins before acetylthiocholine iodide substrate addition and measured after 2 mins.
Data set [7] deals with T1, Cholinesterase (Equus caballus, UniProt P81908). Briefly: Inhibition of equine serum BChE pre-incubated for 5 mins before butyrylthiocholine iodide substrate addition and measured after 2 mins.
T1 sequence (P81908 whole entry): as the sequence (P81908 whole entry) above
Data set [8] has as its system Mus musculus. Briefly: Improvement in cognition in ICR mouse model of Abeta(1-42)-induced cognition-impairment assessed as escape latency time at 15 mg/kg, po dosed from days 3 to 14 by Morris water maze test (reference value: 48.9 secs). Type of data set: functional.
Data set [9] relates to Mus musculus. Briefly: Improvement in cognition in ICR mouse model of Abeta(1-42)-induced cognition-impairment assessed as spontaneous alternation performance level at 15 mg/kg, po dosed from days 3 to 14 and measured on day 15 by Y maze test (reference value: 34.43%). Type of data set: functional.
Data set [10] deals with Mus musculus. Briefly: Improvement in cognition in ICR mouse model of Abeta(1-42)-induced cognition-impairment assessed as improvement in trajectories to platform at 15 mg/kg, po dosed from days 3 to 14 by Morris water maze test. Type of data set: functional, organism-based.
Data set [11] concerns Mus musculus. Briefly: Reduction in the Abeta(1-42) peptide level in ICR mouse model of Abeta(1-42)-induced cognition-impairment at 15 mg/kg, po dosed from days 3 to 14 by ELISA relative to control. Further details: scale not given: the % may be the effect or the level left. Type of data set: functional. For orientation: In an ELISA, binding on a coated surface is turned into a signal by an enzyme label.

Data set [12] has as its system SH-SY5Y. Briefly: Toxicity in human SH-SY5Y cells assessed as reduction in cell viability at 100 uM incubated for 24 hrs by MTT assay relative to control. Type of data set: cell-based.
Data set [13] can be described thus: Toxicity in ICR mouse assessed as induction of abnormal behaviors at 1 mg/kg, ig. In kind it is organism-based. The settings on record: in vivo, po.
Data set [14] is described as follows: Hepatotoxicity in ICR mouse assessed as induction of pericentral necrosis at 30 mg/kg, ig measured after 8 to 36 hrs post dose by immunohistochemical staining assay. In kind it is toxicity, organism-based. Conditions: in vivo, po.
Data set [15] can be described thus: Hepatotoxicity in ICR mouse assessed as induction of fatty degeneration of hepatocytes of surrounding intermediate and periportal zones at 30 mg/kg, ig measured after 8 to 36 hrs post dose by immunohistochemical staining assay. Type of data set: toxicity, organism-based. Conditions: in vivo, po.
In data set [16] the test system is SH-SY5Y. Briefly: Toxicity in human SH-SY5Y cells assessed as reduction in cell viability at 2.5 to 50 uM incubated for 24 hrs by MTT assay. In kind it is cell-based.
A short description of data set [17]: Toxicity in ICR mouse model of scopolamine-induced cognition-impairment assessed as induction of death at 15 to 30 mg/kg, po dosed 30 mins before scopolamine challenge for 10 days. Type of data set: organism-based. Conditions: in vivo.
Data set [18] relates to PC-12. Briefly: Toxicity in rat PC12 cells assessed as reduction in cell viability at 100 uM incubated for 24 hrs by MTT assay relative to control. Conditions: pc-12, 24 h. In kind it is cell-based.
In data set [19] the test system is SH-SY5Y. Briefly: Neuroprotection against Abeta(1-42)-induced cytotoxicity in human SH-SY5Y cells assessed as increase in cell viability incubated for 1 hr before Abeta(1-42) challenge and measured after 24 hrs by MTT assay. Type of data set: functional, cell-based.
Data set [20] relates to Mus musculus. Briefly: Improvement in cognition in ICR mouse model of scopolamine-induced cognition-impairment assessed as improvement in escape latency at 15 to 30 mg/kg, po dosed 30 mins before scopolamine challenge for 10 days by Morris water maze test. Type of data set: functional, organism-based.
Data set [21] has as its system L02. Briefly: Toxicity in human L02 cells assessed as reduction in cell viability at 2.5 to 100 uM incubated for 24 hrs by MTT assay. In kind it is cell-based. The settings on record: l02, 24 h.
The nature of data set [22]: Toxicity in ICR mouse assessed as induction of animal death at 1 mg/kg, ig. In kind it is organism-based. Conditions: in vivo, po.
The nature of data set [23]: Toxicity in ICR mouse model of Abeta(1-42)-induced cognition-impairment assessed as effect on body weight at 15 mg/kg, po dosed from days 3 to 14. The settings on record: in vivo. Type of data set: organism-based.
A short description of data set [24]: Toxicity in ICR mouse model of scopolamine-induced cognition-impairment assessed as induction of behavioral abnormities at 15 to 30 mg/kg, po dosed 30 mins before scopolamine challenge for 10 days. In kind it is organism-based. Conditions: in vivo.
Data set [25] has as its system Mus musculus. Briefly: Improvement in cognition in ICR mouse model of scopolamine-induced cognition-impairment assessed as improvement in trajectories to platform at 15 to 30 mg/kg, po dosed 30 mins before scopolamine challenge for 10 days by Morris water maze test. In kind it is functional, organism-based.
Data set [26] in a line: Selectivity index, ratio of inhibition of Electrophorus electricus AChE pre-incubated for 5 mins before acetylthiocholine iodide substrate addition and measured after 2 mins to IC50 for inhibition of equine serum BChE pre-incubated for 5 mins before butyrylthiocholine iodide substrate addition and measured after 2 mins.
For data set [27], the system named is PC-12. Briefly: Toxicity in rat PC12 cells assessed as reduction in cell viability at 2.5 to 50 uM incubated for 24 hrs by MTT assay. Type of data set: cell-based. Conditions: pc-12, 24 h.
In data set [28] the test system is HepG2. Briefly: Toxicity in human HepG2 cells assessed as toxic dose for reduction in cell viability incubated for 24 hrs by MTT assay. In kind it is cell-based. The settings on record: hepg2, 24 h.
Data set [29] can be described thus: Toxicity in ICR mouse assessed as effect on body weight at 1 mg/kg, ig. In kind it is organism-based. Conditions: in vivo, po.
Data set [30] has as its target Cholinesterase (Equus caballus) (UniProt P81908). Briefly: Noncompetitive inhibition of equine serum BChE assessed as reduction in enzymatic velocity pre-incubated for 5 mins before butyrylthiocholine iodide substrate addition and measured after 2 mins by Lineweaver-Burk plot analysis.
Data set [31] addresses T1, Cholinesterase. Briefly: Noncompetitive inhibition of equine serum BChE pre-incubated for 5 mins before butyrylthiocholine iodide substrate addition and measured after 2 mins by Lineweaver-Burk plot analysis.
The target in data set [32] is Cholinesterase (Homo sapiens, UniProt P06276). Briefly: Inhibition of human BChE pre-incubated for 5 mins before butyrylthiocholine iodide substrate addition and measured after 2 mins.
Sequence of Cholinesterase (Homo sapiens, UniProt P06276) (P06276 whole entry): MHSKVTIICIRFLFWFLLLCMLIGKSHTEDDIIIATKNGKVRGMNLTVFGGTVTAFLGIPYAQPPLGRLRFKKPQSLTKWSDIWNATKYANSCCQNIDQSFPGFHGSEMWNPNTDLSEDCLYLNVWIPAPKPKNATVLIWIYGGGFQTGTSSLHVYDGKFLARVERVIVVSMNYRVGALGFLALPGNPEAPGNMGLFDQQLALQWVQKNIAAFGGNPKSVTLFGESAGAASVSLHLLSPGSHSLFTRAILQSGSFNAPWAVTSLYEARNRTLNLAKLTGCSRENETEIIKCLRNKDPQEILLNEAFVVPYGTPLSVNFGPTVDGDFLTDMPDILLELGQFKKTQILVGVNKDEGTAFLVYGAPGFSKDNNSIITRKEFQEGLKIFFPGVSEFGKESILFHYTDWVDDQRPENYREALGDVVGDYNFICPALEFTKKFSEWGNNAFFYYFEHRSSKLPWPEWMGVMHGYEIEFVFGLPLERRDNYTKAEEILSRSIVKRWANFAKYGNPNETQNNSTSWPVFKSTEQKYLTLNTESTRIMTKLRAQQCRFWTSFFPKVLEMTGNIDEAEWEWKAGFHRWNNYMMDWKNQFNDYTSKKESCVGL

In general, half-life refers to how long it takes for the measured level to halve. What is called inhibition is the relative decrease from the control value, in per cent. As a reminder, the IC50 is the concentration at which inhibition is half-maximal. What is called Ki is a measure of affinity in units of concentration, obtained from inhibition or displacement.

Active and inactive are the calls of the source. The calls are words filed in the database; no cut-off is given here. Bounds are passed on as bounds.

Sequence of Acetylcholinesterase (O42275 whole entry): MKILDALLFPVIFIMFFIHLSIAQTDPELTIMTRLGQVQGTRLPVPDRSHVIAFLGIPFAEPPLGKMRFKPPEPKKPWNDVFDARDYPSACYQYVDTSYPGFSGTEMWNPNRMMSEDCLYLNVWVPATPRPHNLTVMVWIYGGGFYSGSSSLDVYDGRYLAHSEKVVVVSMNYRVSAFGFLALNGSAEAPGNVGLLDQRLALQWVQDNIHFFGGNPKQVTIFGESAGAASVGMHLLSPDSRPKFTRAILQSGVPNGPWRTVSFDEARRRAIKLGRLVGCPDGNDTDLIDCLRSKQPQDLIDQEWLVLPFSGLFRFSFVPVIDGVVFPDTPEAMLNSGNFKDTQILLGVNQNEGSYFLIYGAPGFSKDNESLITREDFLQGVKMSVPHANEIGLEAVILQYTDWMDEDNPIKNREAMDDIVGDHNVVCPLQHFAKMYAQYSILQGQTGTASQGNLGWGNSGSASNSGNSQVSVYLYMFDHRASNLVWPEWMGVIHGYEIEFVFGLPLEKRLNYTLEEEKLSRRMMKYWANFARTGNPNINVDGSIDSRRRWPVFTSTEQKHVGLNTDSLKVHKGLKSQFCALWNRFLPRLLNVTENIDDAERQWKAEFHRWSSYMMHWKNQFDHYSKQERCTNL

On to `CC(=O)[C@H]1CC[C@H]2[C@@H]3CCC4=CC(=O)CC[C@]4(C)[C@H]3CC[C@]12C` [PROGESTERONE], for which, in [1], the Papp was determined as 15.5 ×10⁻⁶ cm/s.

`O=C(c1ccc(F)cc1)C1CCN(CCn2c(=O)[nH]c3ccccc3c2=O)CC1` [KETANSERIN]: the CLint scaled at 1 µM in data set [2] was found to be 55.3 mL/min/kg. The half-life at 1 µM in data set [3] was 31.4 min.

In the case of `COc1ccc(-c2noc(CN(C(=O)c3ccc4c(c3)OCO4)C3CCCCC3)n2)cc1`, the inhibition is 4.33% in data set [4] and -3.2% in [5].

`CCc1noc(-c2cnc3nc(C)ccc3c2Nc2ccc3c(c2)OCCO3)n1` yielded an IC50 in data set [6] of 1.56 µM. Besides, the figures for the inhibition in data set [4] and in [5] were 1.63% and 50.6%, respectively.

As for `Clc1cccc(Cl)c1N=C1NCCN1` [CLONIDINE], in data set [1], the Papp came to 8.8 ×10⁻⁶ cm/s.

For `COc1ccc(-c2cccc(-n3cncc3C(=O)N3Cc4ccccc4C3)c2)cc1OC`, inhibition in data set [7] was half-maximal at 17.3 µM (IC50). Besides, the results for the inhibition in [4] and in data set [5] were 53.4% and 6.29%, respectively.

With `COc1cc2c(cc1OC)C(=O)C(CC1CCN(Cc3ccccc3)CC1)C2` (stereo not drawn) [DONEPEZIL], the Time in data set [8] is reported as 15.3 s. The Activity was determined as 65.23% in data set [9] and 24.08% in [11]. Further, the result in data set [10] was Active.

On to `COc1ccc(C2=C(Nc3ccc4oc5ccccc5c4c3)c3ccccc3C2=O)cc1`, for which the results for the inhibition in data set [4] and in [5] were 4.03% and 42.6%, respectively.

`CN(CCc1noc(-c2cc3ccccc3[nH]2)n1)C(=O)c1ccc(N(C)C)cc1`: the results for the inhibition in data set [4] and in data set [5] were 35.4% and 39.4%, respectively.

Take `Cc1ccc2cc(NC(=O)Cn3c(-c4nonc4N)nc4ccccc43)ccc2n1`: the Time in [8] turned out to be 8.83 s. For the same compound, the Activity in data set [12] is recorded as 50%; in [13] it was “Non-Toxic”; in data set [14], “Non-Toxic”; in [15] it was “Non-Toxic”; in data set [16], “Non-Toxic”; in data set [17], “Non-Toxic”. For the same compound, the Activity in data set [18] is 50%; in [19] it was “Dose-dependent effect”; in data set [20] it was “Dose-dependent effect”; in data set [9], 63.44%; in data set [21], “Non-Toxic”; in [22], “Non-Toxic”. Also, the Activity result was “Non-Toxic” in data set [23]; “Non-Toxic” in data set [24]; “Dose-dependent effect” in data set [25]; “Non-Toxic” in data set [27]; > 20 µM in data set [28]; “Non-Toxic” in data set [29]. In data set [11], the Activity amounted to 40.56%. Further, the Papp in data set [1] turned out to be 7.84 ×10⁻⁶ cm/s. Besides, in data set [2], the CLint scaled at 1 µM was 41.5 mL/min/kg. For the same compound, the figures for the IC50 in data set [7], in data set [6] and in [32] were 0.18 µM, > 100 µM and 0.32 µM, respectively. Besides, the inhibition is 96.5% in data set [4], “Dose-dependent effect” in data set [30] and 15.3% in data set [5]. In [3], the half-life at 1 µM came out at 41.9 min. The Ratio IC50 in data set [26] was > 500. The result in [10] was Active. Besides, affinity in [31] was put at a Ki of 0.232 µM.

For `Cc1ccc(OCc2nc(CN(CC(C)C)C(=O)c3ccc4c(c3)OCO4)cs2)cc1`, the IC50 in data set [7] was 17.7 µM; in data set [6], 11 µM. Moreover, the results for the inhibition in [4] and in data set [5] were 54% and -6.37%, respectively.

For the compound `COCCN(Cc1csc(COc2ccc(C)cc2)n1)C(=O)c1ccc(OC)cc1`, the figures for the inhibition in [4] and in [5] were 7.17% and 5.79%, respectively.

Regarding `C[C@]12CCC(=O)C=C1CC[C@@H]1[C@@H]2C(=O)C[C@]2(C)C(=O)CC[C@@H]12` [ADRENOTERONE], the Papp in data set [1] was 6.05 ×10⁻⁶ cm/s.

For the compound `O=C(c1ccc(C(F)(F)F)cc1)N(CCc1nc(-c2ccc(C(F)(F)F)cc2)no1)Cc1ccco1`, in [5], the inhibition is -0.61%.

For `CN(C)CCCN1c2ccccc2Sc2ccc(Cl)cc21` [CHLORPROMAZINE], in data set [1], the Papp is 12.4 ×10⁻⁶ cm/s.

As to `Cc1ccc(-c2nc3ccccc3o2)cc1NCc1cc(Cc2ccccc2)ccc1O`, the figures for the inhibition in data set [4] and in data set [5] were 8.49% and 6.25%, respectively.

With `COc1cc2c(cc1NC(=O)C(=O)c1c(-c3ccccc3)[nH]c3ccccc13)oc1ccccc12`, the inhibition in data set [4] is 0.73%; in data set [5], -4.57%.

On to `C[C@]12CC[C@@H]3c4ccc(O)cc4CC[C@H]3[C@@H]1CC[C@@H]2O` [ESTRADIOL], for which the Papp in data set [1] was 20.5 ×10⁻⁶ cm/s.

With `CN(CCc1noc(-c2cc3ccccc3[nH]2)n1)C(=O)c1ccc(C(C)(C)C)cc1`, the inhibition in data set [4] was determined as 20.3%; in [5], 51.6%.

`CN1C(C(=O)Nc2ccccn2)=C(O)c2ccccc2S1(=O)=O` [PIROXICAM]: in data set [1], the Papp was 1.69 ×10⁻⁶ cm/s.

The compound `CCCN(Cc1csc(COc2ccc(C)cc2)n1)C(=O)c1ccc2c(c1)OCO2` yielded an IC50 in [7] of 14.3 µM. Moreover, the inhibition is 54.8% in [4] and -0.26% in data set [5].

Take `NCCc1ccc(O)c(O)c1` [DOPAMINE]: the Papp in data set [1] came to 3.3 ×10⁻⁶ cm/s.

(Values after ChEMBL document CHEMBL4622982, “Discovery and Biological Evaluation of a Novel Highly Potent Selective Butyrylcholinsterase Inhibitor” (J Med Chem, 2020).)
